# Test results as given in patent publication US10947213B1 (Merck Patent GmbH, priority 2015, dated 2021).
# pIC50: −log10 of the molar value. Where a name gives a salt, the structure may show the parent alone.
# Target: T1, TLR7/NFKb HEK cells (Homo sapiens, UniProt Q9NYK1)
# T1 construct: expressed in transfected cells; host or cells: HEK cells (TLR7/NFKb reporter line)
# T1 sequence (Q9NYK1 27-1049): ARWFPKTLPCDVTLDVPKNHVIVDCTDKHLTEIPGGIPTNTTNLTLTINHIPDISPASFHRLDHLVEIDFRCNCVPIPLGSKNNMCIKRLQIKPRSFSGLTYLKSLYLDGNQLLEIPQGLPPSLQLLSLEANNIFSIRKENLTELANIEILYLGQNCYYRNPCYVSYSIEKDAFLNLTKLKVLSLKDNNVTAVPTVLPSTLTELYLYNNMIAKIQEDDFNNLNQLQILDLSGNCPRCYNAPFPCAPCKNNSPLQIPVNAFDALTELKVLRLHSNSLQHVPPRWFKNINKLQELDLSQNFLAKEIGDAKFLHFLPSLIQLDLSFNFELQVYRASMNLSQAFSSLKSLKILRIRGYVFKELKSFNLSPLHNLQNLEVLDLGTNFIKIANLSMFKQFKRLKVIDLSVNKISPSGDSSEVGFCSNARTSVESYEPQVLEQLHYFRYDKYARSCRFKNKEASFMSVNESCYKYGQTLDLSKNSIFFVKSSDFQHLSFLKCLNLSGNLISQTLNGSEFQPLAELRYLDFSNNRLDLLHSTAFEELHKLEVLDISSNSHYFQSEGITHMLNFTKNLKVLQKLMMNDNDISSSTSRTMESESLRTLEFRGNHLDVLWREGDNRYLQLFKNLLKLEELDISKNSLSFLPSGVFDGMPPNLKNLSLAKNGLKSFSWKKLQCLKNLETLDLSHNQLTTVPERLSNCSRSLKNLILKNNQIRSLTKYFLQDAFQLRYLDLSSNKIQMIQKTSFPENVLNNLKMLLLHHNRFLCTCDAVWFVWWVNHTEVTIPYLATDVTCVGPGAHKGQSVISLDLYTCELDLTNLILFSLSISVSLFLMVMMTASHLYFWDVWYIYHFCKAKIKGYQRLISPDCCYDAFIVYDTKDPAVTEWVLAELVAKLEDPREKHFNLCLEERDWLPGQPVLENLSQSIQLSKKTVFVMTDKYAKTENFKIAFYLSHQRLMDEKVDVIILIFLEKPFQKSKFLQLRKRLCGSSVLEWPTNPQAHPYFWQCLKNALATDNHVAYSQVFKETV
# Experiment: HEK Cell Assay (TLR7/NFKb reporter, Steady-Glo luciferase readout)
# Assay type: cell-based
# Details: 30 min compound preincubation, then R*48 agonist for 5 hours, read-out: Potency
# In short: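 Steady-Glo luminescence after 5 h stimulation with R*48 agonist, following 30 min compound preincubation. Assay run in HEK cells carrying a TLR7/NFKb luciferase reporter, plated at 5000 cells/well and grown 24 h at 37° C (10% CO2) before treatment.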
row,Structure (SMILES),pIC50
1,"CN[C@@H]1C[C@H](C)CN(c2ccc(C(F)(F)F)c3ncccc23)C1 [Compound 451, Methyl-[(3R,5S)-5-methyl-1-(8-trifluoromethyl-quinolin-5-yl)-piperidin-3-yl]-amine hydrochloride]",> 6.00
2,"C[C@H]1C[C@@H](NC(=O)CN2CCCN(C)CC2)CN(c2ccc(C(F)F)c3nccnc23)C1 [Compound 326, N-[(3R,5S)-1-[8-(difluoromethyl)quinoxalin-5-yl]-5-methylpiperidin-3-yl]-2-(4-methyl-1,4-diazepan-1-yl)acetamide]",> 6.00
3,"COc1ccc(N2C[C@@H](C)C[C@@H](NC(=O)C(N)C(F)(F)F)C2)c2cccnc12 (single isomer, unassigned) [Compound 191]",5.00 to 6.00
4,"CC(C)[C@H](O)C(=O)NC1CC(C(F)(F)F)CN(c2ccc(C#N)c3nccnc23)C1 (single isomer, unassigned) [Compound 87]",> 6.00
5,"CN(C)CC(=O)N[C@H]1CN(c2ccc(C#N)c3nccnc23)CC(C)(C)C1 [Compound 217, N-[(3R)-1-(8-cyanoquinoxalin-5-yl)-5,5-dimethylpiperidin-3-yl]-2-(dimethylamino)acetamide]",> 6.00
6,"Cc1ncc(N2C[C@@H](C)C[C@@H](NC(=O)[C@@H](N)C3CC3)C2)c2cccnc12 [Compound 562, (S)-2-Amino-2-cyclopropyl-N-[(3R,5S)-5-methyl-1-(8-methyl-[1,7]naphthyridin-5-yl)-piperidin-3-yl]-acetamide]",> 6.00
7,"C[C@H]1C[C@@H](NC(=O)CC(C)(C)CN)CN(c2ccc(C(F)(F)F)c3nccnc23)C1 [Compound 301, 4-amino-3,3-dimethyl-N-[(3R,5S)-5-methyl-1-[8-(trifluoromethyl)quinoxalin-5-yl]piperidin-3-yl]butanamide]",> 6.00
8,"COCCN[C@@H]1C[C@H](C)CN(c2ccc(C(F)F)c3ncccc23)C1 [Compound 206, (3R,5S)-1-[8-(difluoromethyl)quinolin-5-yl]-N-(2-methoxyethyl)-5-methylpiperidin-3-amine]",> 6.00
9,"CC(C(=O)N[C@@H]1C[C@H](C)CN(c2ccc(C(F)F)c3nccnc23)C1)N1CC(F)(F)C1 (stereo partly drawn) [Compound 323, 2-(3,3-difluoroazetidin-1-yl)-N-[(3R,5S)-1-[8-(difluoromethyl)quinoxalin-5-yl]-5-methylpiperidin-3-yl]propanamide]",5.00 to 6.00
10,"CN1CCC(CC(=O)N[C@H]2C[C@@H](C(F)(F)F)CN(c3ccc(C#N)c4ncccc34)C2)CC1 (relative stereo) [Compound 478, cis-N-[1-(8-Cyano-quinolin-5-yl)-5-trifluoromethyl-piperidin-3-yl]-2-(1-methyl-piperidin-4-yl)-acetamide]",> 6.00
11,"C[C@H]1C[C@@H](NC(=O)CN2CCOCC2)CN(c2ccc(F)c3ncccc23)C1 [Compound 470, N-[(3R,5S)-1-(8-Fluoro-quinolin-5-yl)-5-methyl-piperidin-3-yl]-2-morpholin-4-yl-acetamide]",5.00 to 6.00
12,"CC(C)(C)CC(=O)N[C@H]1C[C@@H](C2CC2)CN(c2ccc(C#N)c3nccnc23)C1 (relative stereo) [Compound 175, cis-N-[1-(8-cyanoquinoxalin-5-yl)-5-cyclopropylpiperidin-3-yl]-3,3-dimethylbutanamide]",5.00 to 6.00
13,"CC1CC(C(=O)N2CCN(C)CC2)CN(c2ccc(C(F)(F)F)c3ncccc23)C1 (stereo not drawn) [Compound 549, (4-Methyl-piperazin-1-yl)-[5-methyl-1-(8-trifluoromethyl-quinolin-5-yl)-piperidin-3-yl]-methanone]",5.00 to 6.00
14,"N#Cc1ccc(N2CC(NC(=O)CC3(N)CCCCC3)CC(C(F)(F)F)C2)c2cccnc12 (single isomer, unassigned) [Compound 498]",> 6.00
15,"C[C@H]1C[C@@H](NC2CCNC2=O)CN(c2ccnc3nccnc23)C1 (stereo partly drawn) [Compound 127, 3-[[(3R,5S)-5-methyl-1-[pyrido[2,3-b]pyrazin-8-yl]piperidin-3-yl]amino]pyrrolidin-2-one]",< 5.00
16,"CN1CCN(CC(=O)N[C@@H]2C[C@H](F)CN(c3ccc(C#N)c4nccnc34)C2)CC1 [Compound 502, N-[(3R,5S)-1-(8-Cyano-quinoxalin-5-yl)-5-fluoro-piperidin-3-yl]-2-(4-methyl-piperazin-1-yl)-acetamide]",5.00 to 6.00
17,"COc1ccc(N2C[C@@H](C)C[C@@H](NC(=O)CN(C)C)C2)c2cccnc12 [Compound 193, 2-(dimethylamino)-N-[(3R,5S)-1-(8-methoxyquinolin-5-yl)-5-methylpiperidin-3-yl]acetamide]",5.00 to 6.00
18,"CCC(C)CC(=O)N[C@@H]1C[C@H](C)CN(c2ccc(C#N)c3nccnc23)C1 (single isomer, unassigned) [Compound 150]",> 6.00

# Other lines, results leading:
row,pIC50,Structure (SMILES)
1,> 6.00,"C[C@H]1C[C@@H](NC(=O)CC2(N)CCCCC2)CN(c2ccc(C(F)(F)F)c3ncccc23)C1 [Compound 483, 2-(1-Amino-cyclohexyl)-N-[(3R,5S)-5-methyl-1-(8-trifluoromethyl-quinolin-5-yl)-piperidin-3-yl]-acetamide]"
2,> 6.00,"CC(C)[C@H](N)C(=O)N[C@@H]1C[C@H](C)CN(c2ccc(C#N)c3nccnc23)C1 [Compound 103, (2S)-2-amino-N-[(3R,5S)-1-(8-cyanoquinoxalin-5-yl)-5-methylpiperidin-3-yl]-3-methylbutanamide]"
3,> 6.00,"CN1CCN(CC(=O)NC2CN(c3ccc(C(F)(F)F)c4ncccc34)CC(F)(F)C2)CC1 (stereo not drawn) [Compound 511, N-[5,5-Difluoro-1-(8-trifluoromethyl-quinolin-5-yl)-piperidin-3-yl]-2-(4-methyl-piperazin-1-yl)-acetamide]"
4,> 6.00,"C[C@H]1C[C@@H](NC(=O)C(N)C2CC2)CN(c2ccc(C(F)(F)F)c3ncccc23)C1 (stereo partly drawn) [Compound 282, 2-amino-2-cyclopropyl-N-[(3R,5S)-5-methyl-1-[8-(trifluoromethyl)quinolin-5-yl]piperidin-3-yl]acetamide]"
5,> 6.00,"CN(C)CCNC(=O)C1CCN(c2ccc(C#N)c3ncccc23)CC1 [Compound 415, 1-(8-Cyano-quinolin-5-yl)-piperidine-4-carboxylic Acid (2-dimethylamino-ethyl)-amide]"
6,5.00 to 6.00,"C[C@@H]1CN(c2ccnc3nccnc23)C[C@H](CN2CCNCC2)O1 [Compound 48, (2R,6S)-2-methyl-6-(piperazin-1-ylmethyl)-4-(pyrido[2,3-b]pyrazin-8-yl)morpholine]"
7,> 6.00,"COc1ccc(N2C[C@@H](C)C[C@@H](N)C2)c2cccnc12 [Compound 187, (3R,5S)-1-(8-methoxyquinolin-5-yl)-5-methylpiperidin-3-amine]"
8,> 6.00,"CCN1CCC[C@H]1C(=O)NCC1CCN(c2ccc(C#N)c3ncccc23)CC1 [Compound 435, (S)-1-Ethyl-pyrrolidine-2-carboxylic Acid [1-(8-cyano-quinolin-5-yl)-piperidin-4-ylmethyl]-amide]"
9,> 6.00,"N#Cc1ccc(N2C[C@@H](NC(=O)CC3(N)CCCCC3)C[C@@H](C(F)(F)F)C2)c2cccnc12 (racemic) [Compound 479, hydrochloride]"
10,> 6.00,CC(C(=O)N[C@@H]1C[C@H](C)CN(c2ccc(C#N)c3nccnc23)C1)N1CC(O)C1 (stereo partly drawn) [Compound 271]
11,> 6.00,"C[C@H]1C[C@@H](NC(=O)CC2CCN(C)CC2)CN(c2ccc(C(F)(F)F)c3nccnc23)C1 [Compound 253, N-[(3R,5S)-5-methyl-1-[8-(trifluoromethyl)quinoxalin-5-yl]piperidin-3-yl]-2-(1-methylpiperidin-4-yl)acetamide]"
12,> 6.00,"CC(C(=O)N[C@@H]1C[C@H](C)CN(c2ccc(C(F)(F)F)c3ncccc23)C1)N1CC(F)(F)C1 (stereo partly drawn) [Compound 287, 2-(3,3-difluoroazetidin-1-yl)-N-[(3R,5S)-5-methyl-1-[8-(trifluoromethyl)quinolin-5-yl]piperidin-3-yl]propanamide]"
13,< 5.00,"COC(C)C(=O)N[C@@H]1C[C@H](C)CN(c2ccnc3nccnc23)C1 (single isomer, unassigned) [Compound 160]"
14,> 6.00,"C[C@H]1C[C@@H](NC(=O)CO)CN(c2ccc(C#N)c3nccnc23)C1 [Compound 97, N-[(3R,5S)-1-(8-cyanoquinoxalin-5-yl)-5-methylpiperidin-3-yl]-2-hydroxyacetamide]"
15,< 5.00,"CN(C(=O)CN1CCOCC1)[C@H]1C[C@@H](C2CC2)CN(c2ccc(F)c3ncccc23)C1 (racemic) [Compound 368, cis-N-[5-cyclopropyl-1-(8-fluoroquinolin-5-yl)piperidin-3-yl]-N-methyl-2-(morpholin-4-yl)acetamide]"
